# According to patent EP2308883A1, “New derivatives of thieno[2,3-b]pyridine and 5,6,7,8 tetrahydrothieno[2,3 b]quinoline in particular useful in the treatment of malaria” (priority 2009, dated 2011):
# pIC50: −log10 of the molar value.
# Tests used:
# Experiment in all cases: Species specificity: recombinant tagged GSK-3 orthologue kinase assay
# [1] = molecular target: T1, GSK-3 (Plasmodium knowlesi, UniProt A0A679KU36); type: biochemical; details: read-out: IC50 Plasmodium knowlesi; calculated from dose-response curves
# T1 sequence (A0A679KU36 1-473): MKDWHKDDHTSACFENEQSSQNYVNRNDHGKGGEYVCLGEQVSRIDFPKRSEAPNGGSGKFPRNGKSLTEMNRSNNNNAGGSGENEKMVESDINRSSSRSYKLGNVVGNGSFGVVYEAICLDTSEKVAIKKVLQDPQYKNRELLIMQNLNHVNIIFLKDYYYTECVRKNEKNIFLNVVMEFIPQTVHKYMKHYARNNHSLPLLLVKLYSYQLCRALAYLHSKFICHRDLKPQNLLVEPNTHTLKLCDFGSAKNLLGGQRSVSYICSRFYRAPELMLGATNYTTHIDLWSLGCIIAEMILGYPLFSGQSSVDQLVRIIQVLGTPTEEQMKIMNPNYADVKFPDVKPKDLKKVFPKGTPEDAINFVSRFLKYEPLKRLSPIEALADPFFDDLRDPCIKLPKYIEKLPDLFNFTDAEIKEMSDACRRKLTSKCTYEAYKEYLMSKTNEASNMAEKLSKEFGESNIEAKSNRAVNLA
# [2] = molecular target: T2, GSK-3 (Toxoplasma gondii, UniProt O44002); type: biochemical, Toxaplasma grondii
# T2 sequence (O44002 1-394): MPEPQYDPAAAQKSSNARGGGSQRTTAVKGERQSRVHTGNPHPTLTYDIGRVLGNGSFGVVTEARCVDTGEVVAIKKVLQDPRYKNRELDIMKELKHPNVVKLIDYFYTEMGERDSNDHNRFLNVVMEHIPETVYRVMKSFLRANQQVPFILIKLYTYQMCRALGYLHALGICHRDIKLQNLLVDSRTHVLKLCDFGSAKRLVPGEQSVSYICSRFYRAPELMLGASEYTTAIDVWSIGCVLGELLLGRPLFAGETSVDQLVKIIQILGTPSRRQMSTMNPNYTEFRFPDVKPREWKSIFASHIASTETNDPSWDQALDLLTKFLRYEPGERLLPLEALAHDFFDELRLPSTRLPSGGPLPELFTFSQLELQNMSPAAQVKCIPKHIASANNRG
# [3] = molecular target: T3, GSK-3 (Cryptosporidium parvum, UniProt A3FQN0); type: biochemical
# T3 sequence (A3FQN0 1-433): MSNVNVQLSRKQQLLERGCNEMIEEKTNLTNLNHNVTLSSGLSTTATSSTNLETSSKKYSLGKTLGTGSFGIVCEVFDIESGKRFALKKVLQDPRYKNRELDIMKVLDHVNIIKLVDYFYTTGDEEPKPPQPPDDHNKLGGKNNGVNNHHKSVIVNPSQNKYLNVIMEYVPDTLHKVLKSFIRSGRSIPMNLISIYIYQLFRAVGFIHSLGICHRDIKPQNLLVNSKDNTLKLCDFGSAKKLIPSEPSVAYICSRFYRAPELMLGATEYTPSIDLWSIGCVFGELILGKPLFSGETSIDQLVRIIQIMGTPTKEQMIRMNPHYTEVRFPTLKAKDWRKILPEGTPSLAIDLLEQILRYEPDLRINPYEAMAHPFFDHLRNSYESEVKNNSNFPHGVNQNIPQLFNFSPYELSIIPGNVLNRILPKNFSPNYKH
# [4] = molecular target: T4, GSK-3 (Trypanosoma cruzi, UniProt Q4E1X0); type: biochemical; details: read-out: IC50 Trypanopsoma cruzi; calculated from dose-response curves; -(100) taken as no inhibition at 100
# T4 sequence (Q4E1X0 1-353): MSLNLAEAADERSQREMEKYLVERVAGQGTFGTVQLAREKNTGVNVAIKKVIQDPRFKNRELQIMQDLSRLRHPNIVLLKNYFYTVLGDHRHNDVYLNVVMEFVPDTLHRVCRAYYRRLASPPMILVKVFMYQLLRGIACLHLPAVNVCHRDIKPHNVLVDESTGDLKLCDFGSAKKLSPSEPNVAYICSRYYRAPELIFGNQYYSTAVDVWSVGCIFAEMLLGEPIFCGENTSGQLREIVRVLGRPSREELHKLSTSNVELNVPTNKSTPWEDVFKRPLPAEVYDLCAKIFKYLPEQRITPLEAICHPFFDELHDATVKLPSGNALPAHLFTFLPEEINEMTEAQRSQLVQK
# [5] = molecular target: T5, GSK-3 (Leishmania major, UniProt Q4QE15); type: biochemical, Leishmania majo
# T5 construct: made in house
# From the text: (§1) Given the strong conservation of GSK-3 across evolution and the surprising selectivity of the compounds according to the present invention towards PfGSK-3 versus mammalian GSK-3, a selection of 12 GSK-3 orthologues of various species chosen on the "tree of life" analyzed. The species belong to the Apicomplexa (P. falciparum, P. vivax, P. knowlesi and P. berghei (Gardner, M.J. et al. Genome sequence of the human malaria parasite Plasmodium falciparum. Nature 419, 498-511 (2002); Carlton, J.M. et al. Comparative genomics of the neglected human malaria parasite Plasmodium vivax. Nature 455, 799-803 (2008); Pain, A. et al. The genome of the simian and human malaria parasite Plasmodium knowlesi. Nature 455, 799-803 (2008).). Toxoplasma gondii (Qin, C.L., Tang, J. and Kim, K. Cloning and in vitro expression of TPK3, a Toxoplasma gondii homologue of shaggy/glycogen synthase kinase-3 kinases. Mol. Biochem. Parasitol. 93, 273-283 (1998)), Cryptosporidium parvum.
# (§2) Following PCR amplification from cDNA libraries or direct synthesis based on databases sequences, the GSK-3 genes were inserted in appropriate expression vectors and recombinant, tagged kinases were expressed, affinity purified and assayed in the presence of up to 10-100µM of each compound of formula (I) according to the present invention and a selection of the PfGSK-3 inhibitors.
# [6] = molecular target: T6, GSK-3 (Leishmania donovani, UniProt A6N857); type: biochemical; details: read-out: IC50 Leishmania donovani; calculated from dose-response curves
# T6 sequence (A6N857 1-355): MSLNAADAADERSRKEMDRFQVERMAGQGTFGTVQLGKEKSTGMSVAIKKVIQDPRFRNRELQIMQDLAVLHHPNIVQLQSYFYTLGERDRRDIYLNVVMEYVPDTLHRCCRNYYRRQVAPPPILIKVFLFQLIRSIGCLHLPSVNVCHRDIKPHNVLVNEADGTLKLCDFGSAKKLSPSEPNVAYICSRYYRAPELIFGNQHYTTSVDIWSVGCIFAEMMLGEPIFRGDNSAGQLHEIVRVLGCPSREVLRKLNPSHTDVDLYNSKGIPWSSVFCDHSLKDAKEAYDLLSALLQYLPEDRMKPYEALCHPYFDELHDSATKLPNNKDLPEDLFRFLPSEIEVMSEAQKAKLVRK
# [7] = molecular target: T7, GSK-3 (Dictyostelium discoideum, UniProt P51136); type: biochemical
# T7 construct: made in house
# From the text: as §1, §2
# [8] = molecular target: T8, GSK-3 (Plasmodium falciparum, UniProt O77344); type: biochemical
# T8 construct: made in house
# From the text: as §1, §2
# [9] = molecular target: T9, GSK-3 α (Homo sapiens, UniProt P49840); type: biochemical; details: calculated from dose-response curves; -(100) taken as no inhibition at 100
# T9 construct: made in house
# From the text: as §1, §2
# [10] = molecular target: GSK-3 α/β; type: biochemical; details: calculated from dose-response curves; -(100) taken as no inhibition at 100; read-out: IC50 Sus scrofa (GSK-3 α/β)
# From the text: as §1, §2
# T5 sequence (Q4QE15 entry or part of it): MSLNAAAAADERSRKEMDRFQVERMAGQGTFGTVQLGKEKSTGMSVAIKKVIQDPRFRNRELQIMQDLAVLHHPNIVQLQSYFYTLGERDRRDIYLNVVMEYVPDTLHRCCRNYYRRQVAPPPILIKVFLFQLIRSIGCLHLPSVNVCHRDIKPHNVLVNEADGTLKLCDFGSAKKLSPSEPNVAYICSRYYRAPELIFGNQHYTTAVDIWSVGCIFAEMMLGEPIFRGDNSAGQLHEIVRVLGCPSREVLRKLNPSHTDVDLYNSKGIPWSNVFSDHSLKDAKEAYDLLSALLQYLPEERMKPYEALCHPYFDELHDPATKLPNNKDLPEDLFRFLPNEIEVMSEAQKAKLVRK
# T9 sequence (P49840 whole entry): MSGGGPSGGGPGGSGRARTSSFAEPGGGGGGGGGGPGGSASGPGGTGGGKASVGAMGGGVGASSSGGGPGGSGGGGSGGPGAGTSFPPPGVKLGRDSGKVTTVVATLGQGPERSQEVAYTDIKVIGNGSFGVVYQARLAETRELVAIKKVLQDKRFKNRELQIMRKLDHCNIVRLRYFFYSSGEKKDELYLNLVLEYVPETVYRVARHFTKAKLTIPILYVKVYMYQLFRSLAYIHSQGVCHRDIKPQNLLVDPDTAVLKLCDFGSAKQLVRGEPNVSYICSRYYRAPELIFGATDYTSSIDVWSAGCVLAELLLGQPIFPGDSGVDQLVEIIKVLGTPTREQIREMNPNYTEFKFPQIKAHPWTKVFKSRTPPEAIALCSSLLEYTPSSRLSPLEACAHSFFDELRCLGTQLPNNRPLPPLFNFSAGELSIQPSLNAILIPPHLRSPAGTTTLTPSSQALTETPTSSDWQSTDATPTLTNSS
# T7 sequence (P51136 whole entry): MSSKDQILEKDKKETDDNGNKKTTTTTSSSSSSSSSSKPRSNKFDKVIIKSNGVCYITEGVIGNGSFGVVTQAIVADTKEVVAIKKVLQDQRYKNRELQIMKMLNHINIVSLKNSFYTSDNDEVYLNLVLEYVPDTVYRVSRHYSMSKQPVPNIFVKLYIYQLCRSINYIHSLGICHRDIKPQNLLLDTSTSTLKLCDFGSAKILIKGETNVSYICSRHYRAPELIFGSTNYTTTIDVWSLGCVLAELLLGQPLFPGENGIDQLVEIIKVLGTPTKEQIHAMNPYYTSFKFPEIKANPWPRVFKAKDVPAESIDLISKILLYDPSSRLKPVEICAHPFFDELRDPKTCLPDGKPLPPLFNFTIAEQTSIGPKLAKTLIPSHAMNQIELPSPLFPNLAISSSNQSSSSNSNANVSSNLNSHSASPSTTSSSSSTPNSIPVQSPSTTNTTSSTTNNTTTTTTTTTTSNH
# T8 sequence (O77344 entry or part of it): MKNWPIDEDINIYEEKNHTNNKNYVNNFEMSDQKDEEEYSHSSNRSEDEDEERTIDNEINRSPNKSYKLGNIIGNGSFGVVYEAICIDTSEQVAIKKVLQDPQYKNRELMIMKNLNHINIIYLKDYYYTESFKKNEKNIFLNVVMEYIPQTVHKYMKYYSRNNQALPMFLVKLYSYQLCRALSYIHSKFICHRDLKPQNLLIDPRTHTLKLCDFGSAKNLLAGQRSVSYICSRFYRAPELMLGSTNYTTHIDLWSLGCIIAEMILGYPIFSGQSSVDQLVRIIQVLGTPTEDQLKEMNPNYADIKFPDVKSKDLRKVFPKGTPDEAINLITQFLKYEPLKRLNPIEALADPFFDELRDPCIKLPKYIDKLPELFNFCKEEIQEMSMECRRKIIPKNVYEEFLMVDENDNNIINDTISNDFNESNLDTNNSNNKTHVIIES
structure (smiles),measurement,setting,value
"N#Cc1c(N)nc2sc(C(=O)c3ccc(Cl)cc3)c(N)c2c1-c1ccccc1I [Compound 1, 3,6-diamino-2-(4-chlorobenzoyl)-4-(2-iodophenyl)thieno[2,3-b]pyridine-5-carbonitrile]",pIC50,[1],4.81
same,pIC50,[2],< 4.00
same,pIC50,[3],< 4.00
same,pIC50,[4],< 4.00
same,pIC50,[5],< 4.00
same,pIC50,[6],4.10
same,pIC50,[7],< 4.00
same,pIC50,[8],5.72
same,pIC50,[9],< 4.00
same,pIC50,[10],< 4.00
